Data from article PMC4452912 (Viruses, 2015).

Experiments:
ER α-glucosidase I = target: T1, ER α-glucosidase I (Rattus norvegicus, UniProt O88941); assay: Purified enzyme inhibition, ER α-glucosidase I; assay type: biochemical
T1 sequence (O88941 1-834): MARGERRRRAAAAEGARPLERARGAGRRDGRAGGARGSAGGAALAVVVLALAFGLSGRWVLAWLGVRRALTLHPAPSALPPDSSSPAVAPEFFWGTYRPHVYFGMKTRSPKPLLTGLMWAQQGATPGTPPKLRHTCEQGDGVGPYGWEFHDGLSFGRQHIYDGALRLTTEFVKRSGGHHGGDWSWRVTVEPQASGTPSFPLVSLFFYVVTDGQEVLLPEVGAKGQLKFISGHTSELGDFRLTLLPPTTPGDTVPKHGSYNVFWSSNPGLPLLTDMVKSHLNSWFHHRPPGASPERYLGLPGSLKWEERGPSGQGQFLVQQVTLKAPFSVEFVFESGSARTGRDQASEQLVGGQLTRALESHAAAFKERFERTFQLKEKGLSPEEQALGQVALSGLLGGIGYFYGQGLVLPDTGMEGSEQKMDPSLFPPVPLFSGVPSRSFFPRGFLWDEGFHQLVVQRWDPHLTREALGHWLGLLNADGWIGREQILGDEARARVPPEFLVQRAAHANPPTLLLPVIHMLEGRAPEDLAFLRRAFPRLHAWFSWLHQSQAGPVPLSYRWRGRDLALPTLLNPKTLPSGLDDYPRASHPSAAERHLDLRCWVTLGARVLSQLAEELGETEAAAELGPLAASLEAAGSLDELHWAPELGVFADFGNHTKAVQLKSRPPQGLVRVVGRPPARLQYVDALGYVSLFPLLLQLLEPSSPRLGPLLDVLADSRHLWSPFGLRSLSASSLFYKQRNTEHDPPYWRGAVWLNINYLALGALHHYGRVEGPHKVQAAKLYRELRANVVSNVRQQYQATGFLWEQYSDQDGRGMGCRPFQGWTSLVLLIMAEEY

[1] = test system: ER α-glucosidases I and II; assay: Cellular free oligosaccharide (FOS) assay in HL60 cells; assay type: cell-based, human; conditions: 24 h, mono- and tri-glucosylated FOS
[2] = test system: DENV (serotype 2, New Guinea C isolate); assay: microbe, parasite or virus in culture; assay type: cell-based; conditions: Dengue virus, DENV2, 120 h; Vero cells, MOI 0.01, 5 days; mean of duplicate
[3] = test system: Venezuelan Equine Encephalitis virus (VEEV, TC-83 vaccine strain); assay: microbe, parasite or virus in culture; assay type: cell-based; conditions: Vero, 72 h, read-out: IC50 VEEV
in vitro [4] = assay type: in vitro ADME; conditions: human, Caco-2
in vitro [5] = assay type: in vitro ADME; conditions: human, plasma
in vitro [6] = assay type: in vitro ADME; conditions: human, microsomes
in vitro [7] = assay type: in vitro ADME; conditions: mouse, microsomes
CYP2C19 = CYP2C19 (Homo sapiens, UniProt P33261); assay: CYP inhibition in human liver microsomes, CYP2C19; assay type: in vitro ADME
CYP2D6 = CYP2D6 (Homo sapiens, UniProt P10635); assay: CYP inhibition in human liver microsomes, CYP2D6; assay type: in vitro ADME
CYP3A4 = CYP3A4 (Homo sapiens, UniProt P08684); assay: CYP inhibition in human liver microsomes, CYP3A4; assay type: in vitro ADME
hERG = target: T2, hERG (Homo sapiens, UniProt Q12809); assay: Functional hERG assay, automated whole-cell patch clamp in CHO cells; assay type: cell-based
T2 construct: expressed in transfected cells; host or cells: CHO

[8] = test system: circulating cytokines and chemokines; assay: Serum cytokine levels in DENV infected AG129 mice (23-plex); assay type: in vivo; conditions: 100 mg/kg TID
Mouse pharmacokinetics = assay type: in vivo, Swiss Albino mice; conditions: male, Swiss Albino

T2 sequence (Q12809 whole entry): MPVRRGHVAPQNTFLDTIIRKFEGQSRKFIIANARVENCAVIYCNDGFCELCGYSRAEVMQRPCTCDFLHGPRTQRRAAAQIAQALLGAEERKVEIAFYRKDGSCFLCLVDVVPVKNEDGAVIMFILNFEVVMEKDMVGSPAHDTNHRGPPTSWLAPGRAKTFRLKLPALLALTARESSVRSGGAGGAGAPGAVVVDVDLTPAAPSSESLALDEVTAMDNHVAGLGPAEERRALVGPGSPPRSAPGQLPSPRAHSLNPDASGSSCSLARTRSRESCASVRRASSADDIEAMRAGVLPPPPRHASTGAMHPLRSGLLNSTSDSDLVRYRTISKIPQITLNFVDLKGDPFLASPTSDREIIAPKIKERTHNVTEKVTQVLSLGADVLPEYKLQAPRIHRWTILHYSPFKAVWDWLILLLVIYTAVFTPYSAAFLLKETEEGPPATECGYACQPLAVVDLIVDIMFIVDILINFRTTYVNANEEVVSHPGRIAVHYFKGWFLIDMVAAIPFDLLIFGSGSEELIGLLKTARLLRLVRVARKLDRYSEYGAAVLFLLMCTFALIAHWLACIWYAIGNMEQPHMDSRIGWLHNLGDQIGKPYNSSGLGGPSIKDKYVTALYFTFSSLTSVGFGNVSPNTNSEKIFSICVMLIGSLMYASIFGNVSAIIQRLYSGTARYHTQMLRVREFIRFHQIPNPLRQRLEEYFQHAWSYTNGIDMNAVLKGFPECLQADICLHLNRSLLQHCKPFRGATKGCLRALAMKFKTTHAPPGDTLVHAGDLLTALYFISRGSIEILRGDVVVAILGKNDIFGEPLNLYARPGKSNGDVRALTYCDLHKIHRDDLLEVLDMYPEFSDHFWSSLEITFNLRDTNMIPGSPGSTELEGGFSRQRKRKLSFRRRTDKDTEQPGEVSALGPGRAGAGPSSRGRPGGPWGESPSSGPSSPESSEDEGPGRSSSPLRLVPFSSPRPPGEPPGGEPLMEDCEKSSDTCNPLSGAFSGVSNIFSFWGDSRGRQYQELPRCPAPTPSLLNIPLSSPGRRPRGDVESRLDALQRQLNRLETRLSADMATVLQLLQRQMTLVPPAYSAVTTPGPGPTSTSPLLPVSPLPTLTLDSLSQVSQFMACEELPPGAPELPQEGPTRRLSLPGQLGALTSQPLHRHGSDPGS
CYP2D6, sequence (P10635 whole entry): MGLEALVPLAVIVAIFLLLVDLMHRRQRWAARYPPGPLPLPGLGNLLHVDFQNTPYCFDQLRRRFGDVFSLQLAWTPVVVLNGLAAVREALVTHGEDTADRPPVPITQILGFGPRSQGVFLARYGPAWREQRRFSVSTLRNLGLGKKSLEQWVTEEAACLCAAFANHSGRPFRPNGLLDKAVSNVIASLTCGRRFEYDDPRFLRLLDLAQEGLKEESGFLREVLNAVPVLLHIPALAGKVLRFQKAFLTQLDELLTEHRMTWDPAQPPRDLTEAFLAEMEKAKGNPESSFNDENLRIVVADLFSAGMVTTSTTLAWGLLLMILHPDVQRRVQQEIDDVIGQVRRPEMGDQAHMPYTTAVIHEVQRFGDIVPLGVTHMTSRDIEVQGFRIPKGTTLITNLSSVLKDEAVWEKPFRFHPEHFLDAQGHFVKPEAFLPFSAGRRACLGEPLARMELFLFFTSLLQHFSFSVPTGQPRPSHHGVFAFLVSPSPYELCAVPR
CYP2C19, sequence (P33261 whole entry): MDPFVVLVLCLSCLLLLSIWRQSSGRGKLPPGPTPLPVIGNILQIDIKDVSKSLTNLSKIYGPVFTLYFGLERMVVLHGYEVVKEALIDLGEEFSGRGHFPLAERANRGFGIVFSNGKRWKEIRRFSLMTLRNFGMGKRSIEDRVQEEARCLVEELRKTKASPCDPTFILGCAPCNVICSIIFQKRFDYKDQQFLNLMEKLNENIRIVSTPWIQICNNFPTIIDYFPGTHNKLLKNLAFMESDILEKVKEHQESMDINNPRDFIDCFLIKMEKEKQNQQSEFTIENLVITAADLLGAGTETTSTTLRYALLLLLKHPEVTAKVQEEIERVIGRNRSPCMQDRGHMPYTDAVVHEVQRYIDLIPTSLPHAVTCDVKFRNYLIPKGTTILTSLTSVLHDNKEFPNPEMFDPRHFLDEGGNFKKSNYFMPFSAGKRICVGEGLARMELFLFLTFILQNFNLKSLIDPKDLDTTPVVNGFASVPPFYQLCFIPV
CYP3A4, sequence (P08684 whole entry): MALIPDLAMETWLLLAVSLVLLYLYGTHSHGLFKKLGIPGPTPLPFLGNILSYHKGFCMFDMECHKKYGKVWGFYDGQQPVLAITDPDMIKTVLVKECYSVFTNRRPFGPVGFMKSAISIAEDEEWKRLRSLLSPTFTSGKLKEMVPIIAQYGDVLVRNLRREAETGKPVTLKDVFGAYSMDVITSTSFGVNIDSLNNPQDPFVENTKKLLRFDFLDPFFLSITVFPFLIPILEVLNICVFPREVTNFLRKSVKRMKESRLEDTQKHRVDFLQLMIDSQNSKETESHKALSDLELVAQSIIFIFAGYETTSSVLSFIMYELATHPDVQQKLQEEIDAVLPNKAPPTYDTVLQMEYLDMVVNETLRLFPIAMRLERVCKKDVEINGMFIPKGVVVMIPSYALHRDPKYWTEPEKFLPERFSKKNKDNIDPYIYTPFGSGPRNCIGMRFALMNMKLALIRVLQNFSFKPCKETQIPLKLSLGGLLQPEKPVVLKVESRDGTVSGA

With `OC[C@@H]1[C@@H](O)[C@H](O)[C@@H](O)CN1CCCCCCCCC1CCCO1` (stereo partly drawn) [UV-12] as the compound, how does the IC50 (ER α-glucosidase I) read?
Its IC50 is 140 ± 100 nM.

And the “inhibition of ER α-glucosidase enzymes in cell-based FOS assay” value [1]?
The value was “inhibited”.

And the IC50 [2]?
The IC50 was 21.7 µM.

What about the IC50 [3] of the same compound?
The IC50 was 69.4 µM.

And the efflux ratio at 10 µM (in vitro [4])?
Its efflux ratio at 10 µM is 4.

What about the fraction unbound at 6 h, 10 μM (in vitro [5]) of the same compound?
Its fraction unbound at 6 h, 10 μM is 0.32.

What about the “Liver microsome metabolic stability CLintr” value (in vitro [6]) of the same compound?
The value was less than 0.6 mL/min/g liver.

And the half-life at 0.5 µM (in vitro [6])?
Its half-life at 0.5 µM is greater than 30 min.

And the “parent drug remained after 30 min” value (in vitro [6]; 0.5 h, 0.5 µM)?
The value was 100%.

What about the “Liver microsome metabolic stability CLintr” value (in vitro [7]) of the same compound?
Its value is less than 0.6 mL/min/g liver.

What about the half-life at 0.5 µM (in vitro [7]) of the same compound?
Its half-life at 0.5 µM is greater than 30 min.

And the “parent drug remained after 30 min” value (in vitro [7]; 0.5 h, 0.5 µM)?
The value was 100%.

What about the IC50 (CYP2C19) of the same compound?
Its IC50 is greater than 100 µM.

What about the IC50 (CYP2D6) of the same compound?
The IC50 was greater than 100 µM.

What about the IC50 (CYP3A4) of the same compound?
Its IC50 is greater than 100 µM.

What about the inhibition at 30 µM (hERG; human, CHO cells stably transfected with hERG, 30 μM, read-out: inhibition of hERG current) of the same compound?
Its inhibition at 30 µM is 18.2%.

And the inhibition at 100 µM (hERG; human, CHO cells stably transfected with hERG, 100 μM, read-out: inhibition of hERG current)?
The inhibition at 100 µM was 4.6%.

What about the inhibition at 300 µM (hERG; human, CHO cells stably transfected with hERG, 300 μM, read-out: inhibition of hERG current) of the same compound?
The inhibition at 300 µM was 19.1%.

And the IC50 (hERG; patch clamp, CHO-hERG, read-out: hERG Inhibition)?
The IC50 was greater than 300 µM.

And the “Levels of IL-9 and eotaxin” value [8]?
The value was “not different”.

And the “reduction in MCP-1” value ([8]; 72 h, p = 0.0641)?
The value was “not significant”.

What about the KC levels ([8]; 72 h only) of the same compound?
The KC levels was “significantly higher”.

What about the “Levels of IFN-γ” value ([8]; only at 72 h) of the same compound?
The value was “significantly reduced”.

And the “MIP-1β, RANTES, and IL-10 levels” value ([8]; only at 96 h)?
Its value is “reduced”.

What about the “overall circulating cytokine levels” value ([8]; vs vehicle) of the same compound?
Its value is “dampened”.

What about the Cmax (Mouse pharmacokinetics; in vivo) of the same compound?
The Cmax was 8880 to 12600 ng/mL.

And the bioavailability (Mouse pharmacokinetics; in vivo)?
The bioavailability was 77%.

What about the “CL as % of mouse liver blood flow” value (Mouse pharmacokinetics; in vivo, iv) of the same compound?
Its value is 31%.

What about the “Vss relative to total body water” value (Mouse pharmacokinetics; in vivo, iv) of the same compound?
The value was 3 fold.

What about the AUC(0-inf) (Mouse pharmacokinetics; in vivo, iv, 10 mg/kg) of the same compound?
Its AUC(0-inf) is 5910 ng·h/mL.

And the AUC(0-t) (Mouse pharmacokinetics; in vivo, iv, 10 mg/kg)?
Its AUC(0-t) is 5900 ng·h/mL.

What about the Cmax (Mouse pharmacokinetics; in vivo, iv, 10 mg/kg) of the same compound?
The Cmax was 8880 ng/mL.

What about the Vd (Mouse pharmacokinetics; in vivo, iv, 10 mg/kg) of the same compound?
Its Vd is 1.98 L/kg.

And the clearance (Mouse pharmacokinetics; in vivo, iv, 10 mg/kg)?
Its clearance is 28.2 mL/min/kg.

What about the AUC(0-inf) (Mouse pharmacokinetics; in vivo, po, 100 mg/kg) of the same compound?
The AUC(0-inf) was 45500 ng·h/mL.

What about the AUC(0-t) (Mouse pharmacokinetics; in vivo, po, 100 mg/kg) of the same compound?
Its AUC(0-t) is 43100 ng·h/mL.

And the Cmax (Mouse pharmacokinetics; in vivo, po, 100 mg/kg)?
The Cmax was 12600 ng/mL.

What about the Tmax (Mouse pharmacokinetics; in vivo, po, 100 mg/kg) of the same compound?
The Tmax was 30 min.

And the half-life (Mouse pharmacokinetics; plasma, mice, IV 10 mg/kg)?
The half-life was 115 min.
